From patent US10131669B2, “Pyrazolopyrimidine compounds” (Pfizer Inc., priority 2014, dated 2018)
pIC50: −log10 of the molar value. Counter-ions that a name gives are not always drawn.

Assays:
Format in all cases: biochemical
[1] = molecular target: T1, Human PDE4B1 (Homo sapiens, UniProt Q07343, S133E/S654A/S659A/S661A); test: PDE4B1 Scintillation Proximity Assay (SPA), inhibition of enzyme activity; settings: geometric mean of 2-7 determinations unless otherwise indicated (b: ≥8 determinations; c: single determination); 1 μM cAMP, 30 min at 25° C.; read-out: Human PDE4B FL; IC50
T1 construct: His6 (N); thrombin cleavage site (N); made in house; host or cells: insect cells (baculovirus, pFastBac)
Experimental: The recombinant Bacmid was isolated and used to transfect insect cells to generate a viral stock. To generate cell paste for purification, insect cells were infected with the virus stock and cells were harvested 72 hours after infection as described in Seeger, T. F. et al., Brain Research 985 (2003) 113-126. Insect cell paste was lysed and after centrifugation, the supernatant was chromatographed on Ni-NTA agarose (Qiagen) as described in Seeger, T. F. et al., Brain Research 985 (2003) 113-126. Ni-NTA agarose eluting fractions containing PDE4 were pooled, diluted with Q buffer A (20 mM Tris HCl pH 8, 5% glycerol, 1 mM TCEP) to reduce NaCl to ˜100 mM and loaded on a Source 15Q (GE Healthcare) column. After washing with Q buffer A/10% buffer B to baseline, PDE4D was eluted with a gradient from 10% to 60% of Buffer B (20 mM Tris HCl pH 8, 1 M NaCl, 5% glycerol, 1 mM TCEP). PDE4D fractions were analyzed by SDS-PAGE Coomassie blue staining, pooled based on purity, frozen and stored at −80° C.
(§1) The PDE4A3, PDE4B1, PDE4C1 and PDE4D3 assays use the Scintillation Proximity Assay (SPA) technology to measure the inhibition of human recombinant […], PDE4C1, and PDE4D3 enzyme activity by compounds in vitro. The PDE4A1, PDE4B3, PDE4C1, and PDE4D3 assays are run in parallel using identical parameters, except for the concentration of enzyme (80 pM PDE4A3, 40 pM PDE4B3, 40 pM PDE4C1 and 10 pM PDE4D). The assays are performed in a 384-well format with 50 uL assay buffer (50 mM TRIS pH7.5; 1.3 mM MgCl2; 0.01% Brij) containing enough PDE4A3, PDE4B1, PDE4C1, and PDE4D to convert ˜20% of substrate (1 μM cAMP consisting of 20 nM 3H-cAMP+[…] cold cAMP) and a range of inhibitors. Reactions are incubated for 30 min at 25° C. The addition of 20 uL of 8 mg/ml yitrium silicate SPA beads (Perkin Elmer) stops the reaction. The plates are sealed (TopSeal, Perkin Elmer) and the beads are allowed to settle for 8 hrs, after which they are read on the Trilux Microbeta overnight.

[2] = molecular target: T2, human PDE4D3 (Homo sapiens, UniProt Q08499); test: PDE4D3 Scintillation Proximity Assay (SPA), inhibition of enzyme activity; settings: geometric mean of 2-7 determinations unless otherwise indicated (b: ≥8 determinations; c: single determination); 1 μM cAMP, 30 min at 25° C.; read-out: Human PDE4D FL; IC50
T2 construct: His6 (C); made in house; host or cells: insect cells (baculovirus, pFastBac)
Experimental: The recombinant Bacmid was isolated and used to transfect insect cells to generate a viral stock. To generate cell paste for purification, insect cells were infected and cells were harvested 72 hours after infection. Insect cell paste was lysed and after centrifugation, the supernatant was chromatographed on Ni-NTA agarose (Qiagen) as described in Seeger, T. F. et al., Brain Research 985 (2003) 113-126. Ni-NTA agarose eluting fractions containing PDE4 were pooled, diluted with Q Buffer A (50 mM Tris HCl pH 8, 4% glycerol, 100 mM NaCl, 1 mM TCEP, Protease inhibitors EDTA-free (Roche)) to reduce NaCl to ˜200 mM, and loaded on a Q Sepharose (GE Healthcare) column. After washing with Q buffer A to baseline, PDE4D was eluted with a gradient from 10% to 60% of Buffer B (50 mM Tris HCl pH 8, 1 M NaCl, 4% glycerol, 1 mM TCEP). PDE4D fractions were analyzed by SDS-PAGE Coomassie blue staining, pooled based on purity, frozen and stored at −80° C.
as §1

[3] = molecular target: T3, Human PDE4A3 (Homo sapiens, UniProt P27815); test: PDE4A3 Scintillation Proximity Assay (SPA), inhibition of enzyme activity; settings: geometric mean of 2-7 determinations unless otherwise indicated (b: ≥8 determinations; c: single determination), 1 μM cAMP, 30 min at 25° C., read-out: Human PDE4A FL
T3 construct: His6 (N); FLAG (C); made in house; host or cells: insect cells (baculovirus, pFastBac)
Description: (§2) Human PDE4A3 coding sequence (amino acids 2 to 825 from the sequence with accession number NP_001104779) was cloned into the baculovirus expression vector pFastBac (Invitrogen) engineered to include an N-terminal His6 affinity tag and a c-terminal FLAG affinity tag to aid in purification. The recombinant Bacmid was isolated and used to transfect insect cells to generate a viral stock. To generate cell paste for purification, insect cells were infected with the virus stock and cells were harvested 72 hours after infection. Insect cell paste was lysed and after centrifugation, the supernatant was batch bound to Ni-NTA agarose (GE Healthcare) and eluted with 250 mM imidazole. This eluate was diluted with FLAG buffer (50 mM Tris HCL pH 7.5, 100 mM NaCl, 5% Glycerol, 1 mM TCEP with protease inhibitors) and batch bound to ant-FLAG M2 agarose (Sigma) overnight at 4° C. The agarose was packed into a column, washed with buffer and eluted with buffer containing elute using 250 ug/ml Flag-peptide. Fractions were analyzed using SDS-PAGE Coomassie blue staining and pooled based on purity. Pooled fractions were chromatographed on a S200 120 ml column (GE Healthcare) in 50 mM Tris HCL pH 7.5, 150 mM NaCl, 10% Glycerol, 2 mM TCEP with protease inhibitors. PDE4A3 fractions were analyzed by SDS-PAGE Coomassie blue staining, pooled based on purity, dialyzed against 50 mM Tris HCL pH 7.5, 100 mM NaCl, 20% Glycerol, 2 mM TCEP, frozen and stored at −80° C.
as §1

[4] = molecular target: T4, Human PDE4C1 (Homo sapiens, UniProt Q08493); test: PDE4C1 Scintillation Proximity Assay (SPA), inhibition of enzyme activity; settings: geometric mean of 2-7 determinations unless otherwise indicated (b: ≥8 determinations; c: single determination), 1 μM cAMP, 30 min at 25° C., read-out: Human PDE4C FL
T4 construct: His6 (N); FLAG (C); made in house; host or cells: insect cells (baculovirus, pFastBac)
Experimental: as §2, with “The” for “Human PDE4A3 coding sequence (amino acids 2 to 825 from the sequence with accession number NP_001104779) was cloned into the baculovirus expression vector pFastBac (Invitrogen) engineered to include an N-terminal His6 affinity tag and a c-terminal FLAG affinity tag to aid in purification. The”, “PDE4C1” for “PDE4A3”
as §1

T3 sequence (P27815 2-825 isoform P27815-6): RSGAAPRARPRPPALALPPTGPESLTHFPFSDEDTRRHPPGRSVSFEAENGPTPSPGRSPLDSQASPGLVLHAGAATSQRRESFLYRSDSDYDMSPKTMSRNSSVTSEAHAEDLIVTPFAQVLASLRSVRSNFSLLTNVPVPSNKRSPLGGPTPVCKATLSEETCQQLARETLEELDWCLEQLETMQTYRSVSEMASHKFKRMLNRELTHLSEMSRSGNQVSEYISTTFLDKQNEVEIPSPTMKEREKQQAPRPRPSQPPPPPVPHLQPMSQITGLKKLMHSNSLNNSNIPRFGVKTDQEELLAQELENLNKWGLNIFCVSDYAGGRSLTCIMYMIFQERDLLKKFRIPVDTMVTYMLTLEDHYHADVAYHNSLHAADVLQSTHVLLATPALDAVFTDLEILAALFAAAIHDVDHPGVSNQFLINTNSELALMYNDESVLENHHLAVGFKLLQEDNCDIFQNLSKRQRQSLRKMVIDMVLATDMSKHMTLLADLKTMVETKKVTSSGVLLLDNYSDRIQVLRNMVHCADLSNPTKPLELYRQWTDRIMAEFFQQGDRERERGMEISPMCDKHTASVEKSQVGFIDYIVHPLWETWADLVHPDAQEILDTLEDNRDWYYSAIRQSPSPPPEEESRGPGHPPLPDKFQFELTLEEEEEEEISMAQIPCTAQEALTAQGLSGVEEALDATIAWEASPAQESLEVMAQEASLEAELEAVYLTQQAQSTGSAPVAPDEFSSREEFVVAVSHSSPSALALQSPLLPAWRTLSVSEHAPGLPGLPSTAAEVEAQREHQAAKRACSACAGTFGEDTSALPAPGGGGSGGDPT
T1 sequence (Q07343 122-736 S133E/S654A/S659A/S661A): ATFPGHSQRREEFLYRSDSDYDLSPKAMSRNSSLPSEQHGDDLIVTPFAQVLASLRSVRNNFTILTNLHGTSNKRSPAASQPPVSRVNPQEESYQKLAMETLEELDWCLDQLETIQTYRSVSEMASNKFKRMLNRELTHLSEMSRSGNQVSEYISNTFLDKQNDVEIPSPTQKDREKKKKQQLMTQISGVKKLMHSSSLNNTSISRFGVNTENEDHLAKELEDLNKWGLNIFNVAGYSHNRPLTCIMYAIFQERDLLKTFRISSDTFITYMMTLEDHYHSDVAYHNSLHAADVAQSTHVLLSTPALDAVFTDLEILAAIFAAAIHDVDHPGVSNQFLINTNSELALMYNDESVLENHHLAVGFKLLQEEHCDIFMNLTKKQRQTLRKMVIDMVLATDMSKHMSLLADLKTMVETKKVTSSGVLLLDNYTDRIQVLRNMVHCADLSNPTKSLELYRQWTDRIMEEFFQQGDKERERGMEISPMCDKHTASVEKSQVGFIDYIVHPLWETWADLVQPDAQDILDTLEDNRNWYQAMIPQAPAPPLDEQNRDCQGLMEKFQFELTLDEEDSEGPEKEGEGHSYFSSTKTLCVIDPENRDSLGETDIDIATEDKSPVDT
T2 sequence (Q08499 186-808): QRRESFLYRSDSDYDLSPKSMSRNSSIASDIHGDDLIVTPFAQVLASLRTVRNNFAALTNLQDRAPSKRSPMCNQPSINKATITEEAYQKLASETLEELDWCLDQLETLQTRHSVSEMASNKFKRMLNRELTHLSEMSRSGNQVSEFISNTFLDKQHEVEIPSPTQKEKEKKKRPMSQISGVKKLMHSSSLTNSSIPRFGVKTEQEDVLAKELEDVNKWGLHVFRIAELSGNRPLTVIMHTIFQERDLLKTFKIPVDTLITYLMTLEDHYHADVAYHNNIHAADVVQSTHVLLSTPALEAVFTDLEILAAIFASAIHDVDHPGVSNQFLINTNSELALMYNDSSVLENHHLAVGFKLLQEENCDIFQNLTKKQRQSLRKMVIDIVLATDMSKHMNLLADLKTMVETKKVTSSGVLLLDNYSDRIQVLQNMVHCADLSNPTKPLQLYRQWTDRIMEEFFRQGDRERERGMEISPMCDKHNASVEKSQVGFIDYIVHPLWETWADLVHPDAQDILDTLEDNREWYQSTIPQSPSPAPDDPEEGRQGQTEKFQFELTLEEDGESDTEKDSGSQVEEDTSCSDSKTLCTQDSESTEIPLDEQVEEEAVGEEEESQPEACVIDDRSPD
T4 sequence (Q08493 2-712): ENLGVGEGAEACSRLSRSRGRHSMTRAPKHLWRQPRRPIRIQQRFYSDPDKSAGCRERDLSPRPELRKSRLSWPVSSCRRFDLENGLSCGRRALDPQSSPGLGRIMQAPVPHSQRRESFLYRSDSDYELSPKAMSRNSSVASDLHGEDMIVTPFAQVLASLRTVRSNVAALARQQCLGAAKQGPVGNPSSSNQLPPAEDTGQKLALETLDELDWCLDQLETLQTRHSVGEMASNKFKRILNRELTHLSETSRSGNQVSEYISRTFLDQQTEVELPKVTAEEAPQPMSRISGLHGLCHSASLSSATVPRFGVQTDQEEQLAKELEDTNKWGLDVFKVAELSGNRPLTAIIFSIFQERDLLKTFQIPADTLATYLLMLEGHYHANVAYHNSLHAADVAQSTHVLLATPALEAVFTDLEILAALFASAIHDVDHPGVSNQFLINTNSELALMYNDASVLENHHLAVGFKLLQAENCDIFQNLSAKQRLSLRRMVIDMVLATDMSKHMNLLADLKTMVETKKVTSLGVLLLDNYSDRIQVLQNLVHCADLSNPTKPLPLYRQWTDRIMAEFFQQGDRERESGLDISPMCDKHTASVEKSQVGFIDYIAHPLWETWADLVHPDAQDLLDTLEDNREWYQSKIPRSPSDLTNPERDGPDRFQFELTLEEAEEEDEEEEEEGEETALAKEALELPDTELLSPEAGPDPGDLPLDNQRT

pIC50 [1]	pIC50 [2]	pIC50 [3]	pIC50 [4]	Compound
5.66	4.57			O=C(Nc1nn2cccnc2c1-c1ccc(Cl)c(F)c1)c1ccccc1 [Example 30, N-[3-(4-chloro-3-fluorophenyl)pyrazolo[1,5-a]pyrimidin-2-yl]benzamide]
6.75	< 4.78	7.29	7.08	O=C(NC1CC1)c1nn2cccnc2c1-c1ccc(Cl)cc1F [Example 14, 3-(4-chloro-2-fluorophenyl)-N-cyclopropylpyrazolo[1,5-a]pyrimidine-2-carboxamide]
8.43	6.85	7.84	7.70	O=C(N[C@@H]1C[C@@H]1F)c1nn2cccnc2c1-c1ccc(Cl)c(F)c1 [Example 28, 3-(4-chloro-3-fluorophenyl)-N-[(1R,2S)-2-fluorocyclopropyl]pyrazolo[1,5-a]pyrimidine-2-carboxamide]
7.24	5.61	7.57	7.24	O=C(NC1CC1)c1nn2cccnc2c1-c1cc(Cl)ccc1F [Example 13, 3-(5-chloro-2-fluorophenyl)-N-cyclopropylpyrazolo[1,5-a]pyrimidine-2-carboxamide]
6.91	5.21	7.25	6.66	O=C(NC12CC(C1)C2)c1nn2cccnc2c1-c1ccc(Cl)cc1 [Example 27, N-(bicyclo[1.1.1]pent-1-yl)-3-(4-chlorophenyl)pyrazolo[1,5-a]pyrimidine-2-carboxamide]
6.88	5.52			O=C(NC1CC1)c1nn2cccnc2c1-c1cncc(Cl)c1 [Example 29, 3-(5-chloropyridin-3-yl)-N-cyclopropylpyrazolo[1,5-a]pyrimidine-2-carboxamide]
7.68	6.01	8.07	7.10	CCNC(=O)c1nn2cccnc2c1-c1cc(F)c(Cl)cc1C [Example 17, 3-(4-chloro-5-fluoro-2-methylphenyl)-N-ethylpyrazolo[1,5-a]pyrimidine-2-carboxamide]
7.35	5.32	7.78	7.25	Cc1cc(Cl)ccc1-c1c(C(=O)N2CCC2)nn2cccnc12 [Example 21, azetidin-1-yl[3-(4-chloro-2-methylphenyl)pyrazolo[1,5-a]pyrimidin-2-yl]methanone]
8.48	6.39	7.03	6.77	O=C(NC1CC1)c1nn2cccnc2c1-c1cc(F)c(Cl)c(F)c1 [Example 33, 3-(4-chloro-3,5-difluorophenyl)-N-cyclopropylpyrazolo[1,5-a]pyrimidine-2-carboxamide, hydrochloride salt]
7.26	< 4.98	7.54	7.18	Cc1cc(Cl)ccc1-c1c(C(=O)NC2CC2)nn2cccnc12 [Example 6, 3-(4-Chloro-2-methylphenyl)-N-cyclopropylpyrazolo[1,5-a]pyrimidine-2-carboxamide]
7.20	< 4.97	7.09	6.56	CC1(NC(=O)c2nn3cccnc3c2-c2ccc(Cl)cc2)CC1 [Example 11, 3-(4-chlorophenyl)-N-(1-methylcyclopropyl)pyrazolo[1,5-a]pyrimidine-2-carboxamide]
7.17	5.63			O=C(NC1CC1(F)F)c1nn2cccnc2c1-c1ccc(Cl)cc1 (stereo not drawn) [Example 40, 3-(4-chlorophenyl)-N-(2,2-difluorocyclopropyl)pyrazolo[1,5-a]pyrimidine-2-carboxamide]
8.00	6.14			O=C(NC1CC1)c1nn2cccnc2c1-c1ccc(Cl)c(Cl)c1 [Example 32, N-cyclopropyl-3-(3,4-dichlorophenyl)pyrazolo[1,5-a]pyrimidine-2-carboxamide, hydrochloride salt]
7.50	6.16			O=C(c1nn2cccnc2c1-c1ccnc(OC(F)F)c1)N1CCC1 [Example 37, azetidin-1-yl{3-[2-(difluoromethoxy)pyridin-4-yl]pyrazolo[1,5-a]pyrimidin-2-yl}methanone]
7.34	5.22			O=C(c1nn2cccnc2c1-c1cc(Cl)ccc1F)N1CCC1 [Example 74, azetidin-1-yl[3-(5-chloro-2-fluorophenyl)pyrazolo[1,5-a]pyrimidin-2-yl]methanone]
8.27	6.46			O=C(c1nn2cccnc2c1-c1cc(F)c(Cl)c(F)c1)N1CCC1 [Example 41, azetidin-1-yl[3-(4-chloro-3,5-difluorophenyl)pyrazolo[1,5-a]pyrimidin-2-yl]methanone]
7.29	6.15			O=C(NC1CC1)c1nn2cccnc2c1-c1ccnc(OC(F)F)c1 [Example 38, N-cyclopropyl-3-[2-(difluoromethoxy)pyridin-4-yl]pyrazolo[1,5-a]pyrimidine-2-carboxamide, formate salt]
6.35	< 4.52			N#Cc1ccc(-c2c(C(=O)NC3CC3)nn3cccnc23)c(F)c1 [Example 76, 3-(4-cyano-2-fluorophenyl)-N-cyclopropylpyrazolo[1,5-a]pyrimidine-2-carboxamide]
